The target in assay [1] is T1, CDK2 (Homo sapiens, UniProt P24941).
T1 construct: High-Throughput Measurement of Cellular Endogenous CDK2; endogenous in cells; host or cells: OVCAR3
In words: CDK2 HTRF assay: cellular endogenous CDK2 level in OVCAR3 cells. The assay is classed as cell-based. To be noted: 24 hours compound treatment; for DC50: read-out: DC50 (half maximal degradation concentration of CDK2). The procedure:
Effects of compounds on cellular CDK2 level can be monitored by a high-throughput HTRF assay or traditional Western Blot assay.
To determine half maximal degradation concentration (DC50) values of compounds, cellular CDK2 level was measured in 96-well format using HTRF total CDK2 cellular kit (Cat #64CDK2TPEG) from Cisbio.
On Day 1, OVCAR3 cells were seeded into 96-well tissue-culture treated plates at 20,000 cells/well in 200 μL and incubated overnight at 37° C. in CO2 atmosphere. On Day 2 cells were treated with compounds at concentration ranging from 0.3 to 10,000 nM using HP D300 digital dispenser. 24 hours after compound treatment, cell culture media was removed by flicking the plate and tapping the plate against clean paper towel. Immediately 30 μL 1× lysis buffer was supplemented from the kit and the plate was incubated at room temperature on shaker for 30 min. After homogenization by pipetting up and down, 8 μL cell lysate from 96-well cell culture plate was transferred to 384-well small volume white detection plate. 2 μL premixed detection solution was added and the plate was covered with sealer. To prepare the detection solution, d2 conjugated-CDK2 antibody and Eu-cryptate conjugated CDK2 antibody were diluted into detection buffer following manufacturer's instruction. Detection plates were incubated overnight at room temperature and read on ClarioStar (BMG Labtech) in TR-FRET mode (665 nM and 620 nM). The TR-FRET ratio (665 nM/620 nM) was plotted against the compound concentration and normalized to DMSO controls. Half maximal degradation concentration (DC50) values were calculated with a four-parameter logistic fit using GraphPad Prism (version 8; La Jolla, CA).
In the table below, A indicates a DC50 of less than 0.1 μM; B indicates a DC50 of greater than or equal to 0.1 μM but less than 0.5 μM; C indicates a DC50 of greater than or equal to 0.5 μM but less than 1 μM; and D indicates a DC50 of greater than or equal to 1 μM but less than 10 μM.
Background: In TR-FRET formats the signal depends on donor and acceptor labels being close together.

The target in assay [2] is T1, CDK2. Kind of assay: Inhibition of CDK2: phospho-Rb (S807/811) HTRF measurement in OVCAR3 cells. Format: cell-based. The note with it: 24 h compound treatment, read-out: pRb (nM), IC50 in pRB(S807/811) assay. The procedure:
Phosphorylation of RB protein at S807/811 were measured using HTRF phospho-RB cellular kits (Cat #64RBS807PEG) from Cisbio.
On Day 1, OVCAR3 (dependent on CDK2) cells were seeded into 96-well tissue-culture treated plates at 20,000 cells/well in 200 μL and incubated overnight at 37° C. in CO2 atmosphere. On Day 2, the cells were treated with test compounds at concentrations from 0.3 to 10,000 nM using HP D300 digital dispenser. Twenty-four hours after compound treatment, cell culture media was removed by flicking the plate and tapping the plate against clean paper towel. Immediately 30 μL 1× lysis buffer was supplemented from the kit and the plate was incubated at room temperature on shaker for 30 min. After homogenization by pipetting up and down, 8 μL cell lysate from 96-well cell culture plate was transferred to 384-well small volume white detection plate. 2 μL premixed detection solution was added and the plate was covered with sealer. To prepare the detection solution, d2 conjugated-phospho-RB antibody and Eu-cryptate conjugated phosphor-RB antibody were diluted into detection buffer following manufacturer's instruction. Detection plates were incubated for 4 h at room temperature and read on ClarioStar (BMG Labtech) in TR-FRET mode (665 nM and 620 nM). The TR-FRET ratio (665 nM/620 nM) was plotted against the compound concentration and normalized to DMSO controls. Half maximal inhibition concentration (IC50) values are calculated with a four-parameter logistic fit using GraphPad Prism (version 8; La Jolla, CA).
In the table below, A indicates a IC50 of less than 0.1 μM; B indicates a IC50 of greater than or equal to 0.1 μM but less than 0.5 μM; C indicates a IC50 of greater than or equal to 0.5 μM but less than 1 μM; and D indicates a […] of greater than or equal to 1 μM but less than 10 μM.

In the case of `Cn1cc(-c2nc(NC3CCN(S(=O)(=O)c4cccc(CN5CCN(c6cc7c(cc6F)C(=O)N(C6CCC(=O)NC6=O)C7=O)CC5)c4)CC3)ncc2C(F)(F)F)cn1` (centres unmarked) [Example 5, 2-(2,6-dioxopiperidin-3-yl)-5-fluoro-6-(4-(3-((4-((4-(1-methyl-1H-pyrazol-4-yl)-5-(trifluoromethyl)pyrimidin-2-yl)-amino)piperidin-1-yl)sulfonyl)-benzyl)-piperazin-1-yl)isoindoline-1,3-dione], the DC50 in assay [1] lay in the range of 0.1 to 0.5 µM. For the same compound, the IC50 in assay [2] is less than 100 nM.
As for `Cn1c(=O)n(C2CCC(=O)NC2=O)c2cccc(C3CCN(Cc4cccc(S(=O)(=O)N5CCC(Nc6ncc(C(F)(F)F)c(-c7cnn(CC(F)(F)F)c7)n6)CC5)c4)CC3)c21` (centres unmarked) [Example 8, 3-(3-methyl-2-oxo-4-(1-(3-((4-((4-(1-(2,2,2-trifluoroethyl)-1H-pyrazol-4-yl)-5-(trifluoromethyl)pyrimidin-2-yl)amino)-piperidin-1-yl)sulfonyl)-benzyl)-piperidin-4-yl)-2,3-dihydro-1H-benzo[d]-imidazol-1-yl)piperidine-2,6-dione], in assay [1], the DC50 is less than 0.1 µM. Further, the IC50 in assay [2] is less than 100 nM.
Regarding `O=C1CCC(N2C(=O)c3cc(F)c(N4CCN(Cc5cccc(S(=O)(=O)N6CCC(Nc7ncc(Cl)c(-c8cnn(CC(F)(F)F)c8)n7)CC6)c5)CC4)cc3C2=O)C(=O)N1` (centres unmarked) [Example 9, 5-(4-(3-((4-((5-chloro-4-(1-(2,2,2-trifluoroethyl)-1H-pyrazol-4-yl)-pyrimidin-2-yl)amino)piperidin-1-yl)-sulfonyl)benzyl)piperazin-1-yl)-2-(2,6-dioxopiperidin-3-yl)-6-fluoro-isoindoline-1,3-dione], the “DC50 (half maximal degradation concentration of CDK2)” value in assay [1] is reported as “no curve”. For the same compound, in assay [2], the IC50 fell in the range of 1000 to 10000 nM.
`O=C1CCC(N2C(=O)c3cc(F)c(N4CCN(Cc5cccc(S(=O)(=O)N6CCC(Nc7ncc(C(F)(F)F)c(-c8cnn(C9CCOCC9)c8)n7)CC6)c5)CC4)cc3C2=O)C(=O)N1` (centres unmarked) [Example 10, 2-(2,6-dioxopiperidin-3-yl)-5-fluoro-6-(4-(3-((4-((4-(1-(tetrahydro-2H-pyran-4-yl)-1H-pyrazol-4-yl)-5-(trifluoromethyl)-pyrimidin-2-yl)amino)-piperidin-1-yl)-sulfonyl)benzyl)-piperazin-1-yl)iso-indoline-1,3-dione]: in assay [1], the DC50 was less than 0.1 µM. The IC50 in assay [2] is less than 100 nM.
With `O=C1CCC(Nc2ccc(C3CCN(Cc4cccc(S(=O)(=O)N5CCC(Nc6ncc(C(F)(F)F)c(-c7cnn(CC(F)(F)F)c7)n6)CC5)c4)CC3)cc2)C(=O)N1` (centres unmarked) [Example 11, 3-((4-(1-(3-((4-((4-(1-(2,2,2-trifluoro-ethyl)-1H-pyrazol-4-yl)-5-(trifluoro-methyl)pyrimidin-2-yl)amino)-piperidin-1-yl)sulfonyl)benzyl)piperidin-4-yl)-phenyl)amino)-piperidine-2,6-dione], in assay [1], the DC50 is less than 0.1 µM. Moreover, the IC50 in assay [2] was less than 100 nM.
For `O=C1CCC(N2Cc3cc(N4CCC5(CCN(Cc6cccc(S(=O)(=O)N7CCC(Nc8ncc(C(F)(F)F)c(-c9cnn(CC(F)(F)F)c9)n8)CC7)c6)CC5)CC4)ccc3C2=O)C(=O)N1` (centres unmarked) [Example 12, 3-(1-oxo-5-(9-(3-((4-((4-(1-(2,2,2-trifluoroethyl)-1H-pyrazol-4-yl)-5-(trifluoromethyl)pyrimidin-2-yl)amino)-piperidin-1-yl)sulfonyl)-benzyl)-3,9-diazaspiro[5.5]undecan-3-yl)isoindolin-2-yl)piperidine-2,6-dione], the DC50 in assay [1] is less than 0.1 µM. In addition, the IC50 in assay [2] is less than 100 nM.
For `O=C1CCN(c2ccc(N3CCN(Cc4cccc(S(=O)(=O)N5CCC(Nc6ncc(C(F)(F)F)c(-c7cnn(CC(F)(F)F)c7)n6)CC5)c4)CC3)c(F)c2)C(=O)N1` [Example 13, 1-(3-fluoro-4-(4-(3-((4-((4-(1-(2,2,2-trifluoroethyl)-1H-pyrazol-4-yl)-5-(trifluoromethyl)pyrimidin-2-yl)amino)-piperidin-1-yl)sulfonyl)benzyl)-piperazin-1-yl)phenyl)dihydro-pyrimidine-2,4(1H,3H)-dione], in assay [1], the DC50 is less than 0.1 µM. The IC50 in assay [2] is less than 100 nM.
`O=C1CCC(c2ccc(N3CCN(Cc4cccc(S(=O)(=O)N5CCC(Nc6ncc(C(F)(F)F)c(-c7cnn(CC(F)(F)F)c7)n6)CC5)c4)CC3)c(F)c2)C(=O)N1` (centres unmarked) [Example 14, 3-(3-fluoro-4-(4-(3-((4-((4-(1-(2,2,2-trifluoroethyl)-1H-pyrazol-4-yl)-5-(trifluoromethyl)pyrimidin-2-yl)-amino)piperidin-1-yl)sulfonyl)benzyl)-piperazin-1-yl)phenyl)piperidine-2,6-dione]: in assay [1], the DC50 was less than 0.1 µM. Also, in assay [2], the IC50 was less than 100 nM.
Turning to `O=C1CCC(N2Cc3cc(N4CCN(Cc5cccc(S(=O)(=O)N6CCC(Nc7ncc(C(F)(F)F)c(-c8cnn(CC(F)(F)F)c8)n7)CC6)c5)CC4)c(F)cc3C2=O)C(=O)N1` (centres unmarked) [Example 15, 3-(6-fluoro-1-oxo-5-(4-(3-((4-((4-(1-(2,2,2-trifluoroethyl)-1H-pyrazol-4-yl)-5-(trifluoromethyl)pyrimidin-2-yl)-amino)piperidin-1-yl)sulfonyl)benzyl)-piperazin-1-yl)isoindolin-2-yl)-piperidine-2,6-dione], in assay [1], the DC50 was less than 0.1 µM. Also, the IC50 in assay [2] is less than 100 nM.
As to `O=C1CCN(c2ccc(N3CCN(Cc4cccc(S(=O)(=O)N5CCC(Nc6ncc(C(F)(F)F)c(-c7cnn(CC(F)(F)F)c7)n6)CC5)c4)CC3)c(C(F)(F)F)c2)C(=O)N1` [Example 16, 1-(4-(4-(3-((4-((4-(1-(2,2,2-trifluoro-ethyl)-1H-pyrazol-4-yl)-5-(trifluoro-methyl)pyrimidin-2-yl)amino)-piperidin-1-yl)sulfonyl)benzyl)-piperazin-1-yl)-3-(trifluoromethyl)-phenyl)dihydro-pyrimidine-2,4(1H,3H)-dione], the DC50 in assay [1] is 1 to 10 µM. In addition, the IC50 in assay [2] fell in the range of 1000 to 10000 nM.
In the case of `O=C1CCC(N2C(=O)c3cc(F)c(N4CCN(Cc5cccc(S(=O)(=O)N6CCC(Nc7nccc(-c8cnn(CC(F)(F)F)c8)n7)CC6)c5)CC4)cc3C2=O)C(=O)N1` (centres unmarked) [Example 17, 2-(2,6-dioxopiperidin-3-yl)-5-fluoro-6-(4-(3-((4-((4-(1-(2,2,2-trifluoroethyl)-1H-pyrazol-4-yl)pyrimidin-2-yl)amino)-piperidin-1-yl)sulfonyl)benzyl)-piperazin-1-yl)isoindoline-1,3-dione], in assay [1], the “DC50 (half maximal degradation concentration of CDK2)” value is “no curve”. The IC50 in assay [2] fell in the range of 1000 to 10000 nM.
In the case of `O=C1CCC(c2ccc(N3CC4CCC(C3)N4Cc3cccc(S(=O)(=O)N4CCC(Nc5ncc(C(F)(F)F)c(-c6cnn(CC(F)(F)F)c6)n5)CC4)c3)cc2)C(=O)N1` (centres unmarked) [Example 18, 3-(4-(8-(3-((4-((4-(1-(2,2,2-trifluoro-ethyl)-1H-pyrazol-4-yl)-5-(trifluoro-methyl)pyrimidin-2-yl)amino)-piperidin-1-yl)sulfonyl)benzyl)-3,8-diazabicyclo-[3.2.1]octan-3-yl)phenyl)-piperidine-2,6-dione], the DC50 in assay [1] was less than 0.1 µM. Also, the IC50 in assay [2] is less than 100 nM.
Regarding `Cn1c(S(=O)(=O)N2CCC(Nc3ncc(C(F)(F)F)c(-c4cnn(CC(F)(F)F)c4)n3)CC2)cnc1CN1CCN(c2ccc(C3CCC(=O)NC3=O)cc2F)CC1` (centres unmarked) [Example 20, 3-(3-fluoro-4-(4-((1-methyl-5-((4-((4-(1-(2,2,2-trifluoroethyl)-1H-pyrazol-4-yl)-5-(trifluoromethyl)pyrimidin-2-yl)amino)-piperidin-1-yl)sulfonyl)-1H-imidazol-2-yl)methyl)piperazin-1-yl)phenyl)-piperidine-2,6-dione], in assay [1], the DC50 was less than 0.1 µM. Besides, the IC50 in assay [2] was less than 100 nM.

The record behind these values is US20260274853A1, “BIFUNCTIONAL COMPOUNDS CONTAINING PYRIMIDINE DERIVATIVES FOR DEGRADING CYCLIN-DEPENDENT KINASE 2 VIA UBIQUITIN PROTEASOME PATHWAY” (NIKANG THERAPEUTICS, INC., priority 2022, published 2026).
